The record followed here is PubChem BioAssay AID179 (DTP/NCI, 2004).

In general, pEC50 refers to the EC50 on a negative log10 scale, so that one unit is a factor of ten. As usually defined, the pIC50 is the IC50 on a negative log10 scale, so that one unit is a factor of ten. Read a high pIC50 as a low IC50.

pEC50, pIC50: −log10 of the molar value. Active and inactive are the calls of the source.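 How the source made its calls: active means compounds giving half or more protection of infected cells from virus-caused growth loss, again on retest; inactive means the rest.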 A value given as a limit tells only on which side of the number the result lay.

This experiment relates to CEM cells HIV-1 protection, formazan growth assay. In words: NCI AIDS Antiviral Assay. To be noted: for pIC50: measured here: growth of uninfected CEM cells. The gist of the method: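 Protection of CEM cells against HIV-1 measured as cell growth via soluble formazan read-out, with five concentrations tested on both infected and uninfected cells; failure to protect may reflect toxicity.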

In the case of `CN(C)/C=C/C(=O)c1cccc(C(=O)/C=C/N(C)C)n1`, the pEC50 was under 4.72 and the pIC50 was under 4.72.

As to `CCc1ccccc1NC(=O)C1=C(C)NC(C)=C(C(=O)Nc2c(CC)cccc2CC)C1c1ccc2c(c1)OCO2` (stereo not drawn), the pEC50 was under 4.47 and the negative-log IC50 (pIC50) was under 4.47.

In the case of `O=C(CCC(=O)Nc1cccc(C(F)(F)F)c1)CC(=O)c1ccc2ccccc2c1`, the outcome was inactive.

For the molecule `O=c1oc(-c2cccc(-c3nc4c(c(=O)o3)CCS4)c2)nc2c1CCS2`, the pEC50 is under 3.70.

Consider `CCCC(O)[C@@]1(CC)CC(C)C(O)(C2(C)C[C@H](C)[C@@H](C(CC)C(=O)C(C)[C@@H](O)[C@H](C)C3OC(O)(C(CC)C(=O)O)[C@@H](C)C(O)C3CC)O2)O1` (stereo partly drawn), for which the pEC50 is 6.86 and the pIC50 is 5.75.

For `O=P(c1ccccc1)(c1ccccc1)C(NCc1ccccc1)c1ccc(F)cc1` (stereo not drawn), the pEC50 is under 3.70 and the pIC50 is 4.89.

On to `O=C(NO)Nc1ccc(Cl)c(Cl)c1`, for which the result was inactive and the negative logarithm of the IC50 (pIC50) was 4.25.

On to `CC(C)(C)NNc1c([N+](=O)[O-])cnn(-c2ccccc2)c1=O`, for which the pEC50 was under 4.31 and the pIC50 is 6.60.

For the molecule `Cc1nnc2sc(Cl)nn12`, the pEC50 was under 3.70 and the negative logarithm of the IC50 (pIC50) was 5.21.

As for `N=C(N)N`, the pEC50 was under 3.00 and the negative-log IC50 (pIC50) was under 3.00.

For `Cc1ccc(N=C2C(=Nc3ccc(C)cc3)N(c3ccc(C)cc3)C(=S)N2C(=O)c2ccccc2)cc1`, the pEC50 is under 3.70 and the negative logarithm of the IC50 (pIC50) was under 3.70.

Regarding `O=C(CCC(=O)Nc1ccc(C2=NCCN2)cc1)Nc1ccc(C2=NCCN2)cc1`, the pEC50 is 4.02 and the negative-log IC50 (pIC50) is 3.85.

With `CCOC(=O)C1C2c3ccccc3C(c3ccccc32)C1C(=O)OCC` (stereo not drawn), the pEC50 is under 3.70 and the negative logarithm of the IC50 (pIC50) was under 3.70.

Take `NC1C2(CCCCCC2)NC(=O)C12CCCCCC2` (stereo not drawn): the outcome was inactive.

As to `[N-]=[N+]=CC(=O)OCC1SCCCS1`, the pEC50 is under 3.70 and the negative logarithm of the IC50 (pIC50) is under 3.70.

For the molecule `C=CCC12CC(COc3ccccc3C(N)=O)OC1=Nc1ccccc1NC2=O` (stereo not drawn), the pEC50 was under 3.70 and the negative-log IC50 (pIC50) was under 3.70.

As to `COC(=O)C(C(=O)C(=O)NC1Nc2ccc(C)cc2S1)c1nc2ccc(Cl)cc2[nH]c1=O` (stereo not drawn), the pEC50 was under 4.54 and the negative logarithm of the IC50 (pIC50) was under 4.54.

With `COc1ccc(/C=C/C(CC(NO)c2ccc(OC)cc2)=N\O)cc1` (stereo not drawn), the pEC50 is under 3.70 and the pIC50 is under 4.00.

Turning to `CCCCCCCCCCCc1c2oc3ccc([N+](=O)[O-])cc3nc-2cc(Nc2cc([N+](=O)[O-])ccc2O)c1=O`, the pEC50 was under 5.48 and the negative logarithm of the IC50 (pIC50) is under 5.48.

With `O=C1c2c(nc3ccccc3c2-c2ccccc2)CN1Nc1ccccn1`, the pEC50 was under 3.85 and the negative logarithm of the IC50 (pIC50) is under 3.85.

With `N#Cc1nc(C2OC(COC(=O)c3ccccc3)C(OC(=O)c3ccccc3)C2OC(=O)c2ccccc2)oc1N` (stereo not drawn), the pEC50 is under 4.74 and the negative logarithm of the IC50 (pIC50) is 5.01.

On to `COC(=O)c1c[nH]cc1CCCCc1c[nH]cc1C(=O)OC`, for which the result was inactive.

Take `Cc1cc(S(=O)(=O)NC2=NCc3nc4ccccc4n32)c(S)cc1Cl`: the pEC50 was under 3.70 and the negative-log IC50 (pIC50) is 4.45.

With `CCOC(=O)c1cnc2cc3cccccc3n2c1=O`, the result was inactive.

As for `CCOC(=O)C1=C(OC(OCC)C(CC)[Se]c2ccccc2)CCC1` (stereo not drawn), the pEC50 was under 4.34 and the pIC50 is under 4.34.

`COc1cc2c(cc1OC)C(Cc1cc(Br)c(OC)c(OC)c1)=[N+](C)CC2`: the pEC50 is under 3.35 and the negative logarithm of the IC50 (pIC50) is 4.47.

`CC1OC23CCCCC2C(C#N)(C#N)C1(C#N)C(=N)O3` (stereo not drawn): the pEC50 was under 3.70 and the pIC50 is 5.37.

For `CCOC(=O)Nc1ccc2nc(-c3cscn3)[nH]c2c1`, the pEC50 was under 3.34 and the pIC50 was 5.78.

For the molecule `S=c1[nH]c2cccc3c2n1C[C@@H]1CCCN1C3`, the pEC50 is under 4.49 and the pIC50 was 4.77.
